Assay results: ChEMBL document CHEMBL1201862, “PubChem BioAssay data set” (2004)
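Five concentrations, 48 hours, 96-well plates. Here, GI50 denotes the concentration required for 50% inhibition of growth.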 The source made the active and inactive calls. No stated cut-off is given here; in the data, active = GI50 up to about 1.1 µM and inactive = higher.

Columns and labels:
Assay in all cases: inhibition of tumour cell growth, NCI panel, 48 h
A498 = system: A498
ACHN = system: ACHN
CAKI-1 = system: CAKI-1
CCRF-CEM = system: CCRF-CEM
COLO 205 = system: COLO 205
HOP-62 = system: HOP-62
HT-29 = system: HT-29
IGROV-1 = system: IGROV-1
LOX IMVI = system: LOX IMVI
LXFL 529 = system: LXFL 529
OVCAR-8 = system: OVCAR-8
SF-268 = system: SF-268
SK-MEL-28 = system: SK-MEL-28
SK-OV-3 = system: SK-OV-3
SN12C = system: SN12C
SW-620 = system: SW-620
TK-10 = system: TK-10
UACC-62 = system: UACC-62
MCF7 = system: MCF7

For `COC(=N)/C(=C1\OC(=N)C(c2ccc(Cl)cc2)=C1O)c1ccc(Cl)cc1`, the GI50 (A498) was > 100 µM (inactive), the GI50 (ACHN) was > 100 µM (inactive) and the GI50 (CAKI-1) was > 100 µM (inactive). The GI50 (CCRF-CEM) was 70.5 µM (inactive), the GI50 (COLO 205) was > 100 µM (inactive) and the GI50 (HOP-62) was > 100 µM (inactive). The GI50 (HT-29) was > 100 µM (inactive), the GI50 (IGROV-1) was > 100 µM (inactive) and the GI50 (LOX IMVI) was > 100 µM (inactive). The GI50 (LXFL 529) was 74.3 µM (inactive), the GI50 (OVCAR-8) was > 100 µM (inactive) and the GI50 (SF-268) was > 100 µM (inactive). The GI50 (SK-MEL-28) was > 100 µM (inactive), the GI50 (SK-OV-3) was > 100 µM (inactive) and the GI50 (SN12C) was > 100 µM (inactive). The GI50 (SW-620) was > 100 µM (inactive), the GI50 (TK-10) was > 100 µM (inactive) and the GI50 (UACC-62) was > 100 µM (inactive).

In the case of `CCSc1nc2n(c(=S)n1)CCN2C`, the GI50 (A498) was 19.3 µM (inactive), the GI50 (ACHN) was 19.1 µM (inactive) and the GI50 (CAKI-1) was 13.5 µM (inactive). The GI50 (HOP-62) was 28.6 µM (inactive), the GI50 (HT-29) was 17.4 µM (inactive) and the GI50 (IGROV-1) was 17.7 µM (inactive). The GI50 (LOX IMVI) was 18.4 µM (inactive), the GI50 (LXFL 529) was 13.4 µM (inactive) and the GI50 (OVCAR-8) was 20.7 µM (inactive). For the same compound, the GI50 (SF-268) was 27.9 µM (inactive), the GI50 (SK-MEL-28) was 20.1 µM (inactive) and the GI50 (SK-OV-3) was 21 µM (inactive). The GI50 (SN12C) was 19.6 µM (inactive), the GI50 (SW-620) was 19.7 µM (inactive) and the GI50 (UACC-62) was 12.1 µM (inactive).

In the case of `O=C1NC(=O)/C(=N\c2cccc3c(=O)[nH][nH]c(=O)c23)C(c2nc3ccccc3s2)C1=O` (centres undefined), the GI50 (A498) was > 100 µM (inactive), the GI50 (ACHN) was > 100 µM (inactive) and the GI50 (CAKI-1) was > 100 µM (inactive). The GI50 (CCRF-CEM) was 55.2 µM (inactive), the GI50 (COLO 205) was > 100 µM (inactive) and the GI50 (HOP-62) was > 100 µM (inactive). The GI50 (HT-29) was > 100 µM (inactive), the GI50 (IGROV-1) was > 100 µM (inactive) and the GI50 (LXFL 529) was > 100 µM (inactive). The GI50 (OVCAR-8) was > 100 µM (inactive), the GI50 (SF-268) was > 100 µM (inactive) and the GI50 (SK-MEL-28) was > 100 µM (inactive). For the same compound, the GI50 (SK-OV-3) was > 100 µM (inactive), the GI50 (SN12C) was > 100 µM (inactive) and the GI50 (SW-620) was > 100 µM (inactive). For the same compound, the GI50 (TK-10) was > 100 µM (inactive) and the GI50 (UACC-62) was > 100 µM (inactive).

`O=C(CC(=O)N1N=C(n2ccc3ccccc32)CC1c1ccccc1)Nc1cccc(Cl)c1` (centres undefined) was tested, and the GI50 (A498) was > 100 µM (inactive), the GI50 (ACHN) was > 100 µM (inactive) and the GI50 (CCRF-CEM) was > 100 µM (inactive). For the same compound, the GI50 (COLO 205) was > 100 µM (inactive), the GI50 (HOP-62) was > 100 µM (inactive) and the GI50 (HT-29) was > 100 µM (inactive). For the same compound, the GI50 (IGROV-1) was > 100 µM (inactive), the GI50 (LOX IMVI) was 66.4 µM (inactive) and the GI50 (LXFL 529) was > 100 µM (inactive). The GI50 (OVCAR-8) was > 100 µM (inactive), the GI50 (SF-268) was > 100 µM (inactive) and the GI50 (SK-MEL-28) was > 100 µM (inactive). For the same compound, the GI50 (SK-OV-3) was > 100 µM (inactive), the GI50 (SN12C) was > 100 µM (inactive) and the GI50 (SW-620) was > 100 µM (inactive). The GI50 (TK-10) was > 100 µM (inactive) and the GI50 (UACC-62) was > 100 µM (inactive).

`O=C1CC(C2(O)C(=O)Nc3ccc([N+](=O)[O-])cc32)c2ccccc21` (centres undefined) was tested, and the GI50 (A498) was 72.8 µM (inactive), the GI50 (ACHN) was 54.1 µM (inactive) and the GI50 (CCRF-CEM) was 19.5 µM (inactive). The GI50 (COLO 205) was 25.4 µM (inactive), the GI50 (HOP-62) was 64 µM (inactive) and the GI50 (HT-29) was 22.5 µM (inactive). The GI50 (IGROV-1) was 17.8 µM (inactive), the GI50 (LOX IMVI) was 16.8 µM (inactive) and the GI50 (LXFL 529) was 16.3 µM (inactive). For the same compound, the GI50 (OVCAR-8) was 66.4 µM (inactive), the GI50 (SF-268) was 18.5 µM (inactive) and the GI50 (SK-MEL-28) was 24.8 µM (inactive). The GI50 (SK-OV-3) was 36.5 µM (inactive), the GI50 (SN12C) was 31.8 µM (inactive) and the GI50 (SW-620) was 28.2 µM (inactive). The GI50 (TK-10) was > 100 µM (inactive) and the GI50 (UACC-62) was 19.5 µM (inactive).

In the case of `COc1ccc(OC)c(NC(=O)C2=C(C)NC(C)=C(C(=O)Nc3cc(OC)ccc3OC)C2c2ccccc2)c1`, the GI50 (A498) was > 100 µM (inactive), the GI50 (ACHN) was 30 µM (inactive) and the GI50 (CAKI-1) was > 100 µM (inactive). The GI50 (CCRF-CEM) was 48.4 µM (inactive), the GI50 (COLO 205) was > 100 µM (inactive) and the GI50 (HOP-62) was > 100 µM (inactive). For the same compound, the GI50 (HT-29) was > 100 µM (inactive), the GI50 (IGROV-1) was > 100 µM (inactive) and the GI50 (LOX IMVI) was > 100 µM (inactive). The GI50 (LXFL 529) was > 100 µM (inactive), the GI50 (OVCAR-8) was > 100 µM (inactive) and the GI50 (SF-268) was 63.7 µM (inactive). For the same compound, the GI50 (SK-MEL-28) was 22.6 µM (inactive), the GI50 (SK-OV-3) was > 100 µM (inactive) and the GI50 (SN12C) was > 100 µM (inactive). The GI50 (SW-620) was > 100 µM (inactive), the GI50 (TK-10) was > 100 µM (inactive) and the GI50 (UACC-62) was > 100 µM (inactive).

With `COC(=O)C1[C@H](c2cc(OC)c(OC)c(OC)c2)OC(=O)C1(C(=O)OC)C(=O)c1ccc2c(c1)OCO2` (some centres undefined) the GI50 (A498) was > 100 µM (inactive), the GI50 (ACHN) was > 100 µM (inactive) and the GI50 (CAKI-1) was > 100 µM (inactive). For the same compound, the GI50 (CCRF-CEM) was > 100 µM (inactive), the GI50 (COLO 205) was > 100 µM (inactive) and the GI50 (HOP-62) was > 100 µM (inactive). For the same compound, the GI50 (HT-29) was > 100 µM (inactive), the GI50 (IGROV-1) was > 100 µM (inactive) and the GI50 (LOX IMVI) was > 100 µM (inactive). For the same compound, the GI50 (LXFL 529) was > 100 µM (inactive), the GI50 (OVCAR-8) was > 100 µM (inactive) and the GI50 (SF-268) was > 100 µM (inactive). For the same compound, the GI50 (SK-MEL-28) was > 100 µM (inactive), the GI50 (SK-OV-3) was > 100 µM (inactive) and the GI50 (SN12C) was > 100 µM (inactive). The GI50 (SW-620) was > 100 µM (inactive), the GI50 (TK-10) was > 100 µM (inactive) and the GI50 (UACC-62) was > 100 µM (inactive).

With `COc1cc2c[n+](C)c3c4cc5c(cc4ccc3c2cc1OC)OCO5` [NITIDINE CHLORIDE] the GI50 (A498) was 1.09 µM (active), the GI50 (ACHN) was 71.9 µM (inactive) and the GI50 (CAKI-1) was 2.37 µM (inactive). For the same compound, the GI50 (CCRF-CEM) was 0.752 µM (active), the GI50 (COLO 205) was 1.66 µM (inactive) and the GI50 (HOP-62) was 2.18 µM (inactive). For the same compound, the GI50 (HT-29) was 1.56 µM (inactive), the GI50 (IGROV-1) was 1.03 µM (active) and the GI50 (LOX IMVI) was 3.97 µM (inactive). The GI50 (LXFL 529) was 1.4 µM (inactive), the GI50 (MCF7) was 1.14 µM (inactive) and the GI50 (OVCAR-8) was 1.81 µM (inactive). The GI50 (SF-268) was 0.126 µM (active), the GI50 (SK-MEL-28) was 9.38 µM (inactive) and the GI50 (SK-OV-3) was 0.877 µM (active). The GI50 (SN12C) was 0.447 µM (active), the GI50 (SW-620) was 1.14 µM (inactive) and the GI50 (TK-10) was 29.3 µM (inactive). The GI50 (UACC-62) was 1.25 µM (inactive).
